According to patent US8278315B2, “Radiotherapy method using x-rays” (priority 2002, dated 2012):

Assays:
B-DNA = details: cited from earlier work
[1] = mouse studies, compared with DOX; cited from earlier work
DOX-resistant cells = details: cited from earlier work
neuroblastoma lines = experiment: nuclear chemotherapy: ^77BrdC on neuroblastoma lines; assay type: cell-based
Procedure: An investigation of a method called “nuclear chemotherapy” was done many years previously at Sloan-Kettering Research Institute in New York, by Dr. Chia-Gee Wang and Dr. Lawrence Helson. The research was done using ^77BrdC, where ^77Br (half-life at 57 hours) would undergo a K-capture and deliver 10^6 or more Gy at a small distance. The […] of BrdC to BrdU can be blocked by the non-toxic H4U and therefore excluding BrdC from being incorporated into the DNA pool. Certain transformed cells, on the other hand, would make use of a more primitive kinase to bypass the H4U blockage, and incorporate BrdC to form BrdU. The ^77Br was made by adding an a particle to ^75As in a facility in the U.K. ^77Br was obtained in liquid solution, and ^77BrdC was made. […] The Auger electrons from the ^77BrdU delivered such a high dose of the DNA duplex that no cellular repair was possible.

[2] = DOX-treated patients; cited from earlier work
[3] = loss of UV absorbance at 260 nm after X-rays from a silver target; assay type: physicochemical; details: 20 μg/ml, per 100 Rads
Description: The phenanthroline groups on Dichlorotris(1,10-phenanthroline) ruthenium (II) hydrate absorb in the UV region with a peak absorbance at or near 260 nm. Loss or damage to these groups can be estimated by determining the UV absorbance before and after treatment with X-rays generated by a silver target which is optimum for Ru. Over several experiments replicating treatments with 100 Rad or using increasing amounts of X-rays between 50 Rads and 1000 Rads a loss of UV absorbance at 260 nm of 0.5% to 1% per 100 Rads has been determined.

[Cl2(Me2SO)4Ru] [trans-form]
rate of DNA binding (B-DNA; compared with the cis-form): binds more rapidly

C[C@@H]1O[C@@H](O[C@H]2C[C@](O)(C(=O)CO)Cc3c(O)c4c(c(O)c32)C(=O)c2ccccc2C4=O)[C@H](I)[C@H](O)[C@H]1O [ANN, annamycin]
cardiotoxicity [1]: less cardiotoxic
cross resistance (DOX-resistant cells): lack of cross resistance

Nc1nc(=O)n(C2CC(O)C(CO)O2)cc1[77Br] (stereo not drawn) [^77BrdC]
effect on sensitive tumor lines (neuroblastoma lines; sensitive lines, no immediate cell death): stopped mitosis
sensitivity of neuroblastoma lines (neuroblastoma lines; ten neuroblastoma lines tested, H4U blockage): two of the ten lines were sensitive

COc1cccc2c1C(=O)c1c(O)c3c(c(O)c1C2=O)C[C@@](O)(C(=O)CO)C[C@@H]3O[C@H]1C[C@H](N)[C@H](O)[C@H](C)O1 [DOX, doxorubicin]
frequency of relapse [2]: ≤ 50%

O.[Cl][Ru][Cl].c1cnc2c(c1)ccc1cccnc12.c1cnc2c(c1)ccc1cccnc12.c1cnc2c(c1)ccc1cccnc12 [Dichlorotris(1,10-phenanthroline) ruthenium (II) hydrate]
phenanthroline groups damaged [3]: ~10^14 per ml

CS(C)=O.CS(C)=O.CS(C)=O.CS(C)=O.[Cl][Ru][Cl] [cis-form of [Cl2(Me2SO)4Ru], [Cl2(Me2SO)4Ru]]
effect on conformation of B-DNA (B-DNA): does not significantly affect the conformation of B-DNA
effect on thermal stability of B-DNA (B-DNA): increases its thermal stability
